Results as given in patent US10568976B2, “3,6,9, 15-tetraaza-bicyclo [9.3.1 ]pentadeca-1(14), 11(15), 12-triene based compounds and their application as ligands of essential metal ion based MRI and 52MN based PET contrast agents” (DEBRECENI EGYETEM, priority 2015, dated 2020).

Legend:
[1] = Protonation constants of the ligands (equilibrium study); type: physicochemical; conditions: 25° C., 0.15M NaCl
Procedure: (§1) During the physico-chemical tests of tPC2AM^Pyp and tPC2AM^Pro compounds synthesized according to Example 1 and 2, their protonation constant, as well as equilibrium behaviour and kinetic inertism of their Mn(II) complexes was studied in detail, and the characteristic relaxivity values of the complexes were determined in the presence and absence of HSA (Human Serum Albumin), at 25 and 37° C. and physiological pH. All studies were performed in the presence of 0.15 M NaCl, the same concentration as that of the electrolyte under physiological conditions.
(§2) The results of equilibrium study are summarized in Table 1, in addition to the protonation constants, total basicity of ligands and stability constants of their Mn(II) complexes, the pMn value calculated for complexes are also represented in the table.

[2] = Stability constants of Mn(II) complexes and calculated pMn (equilibrium study); type: physicochemical; conditions: 25° C., 0.15M NaCl; for pMn: calculated from equilibrium constants at pH = 7.4 and cMn = cL = 10^−5 M
Procedure: as §1, §2
Based on the pMn values represented in Table 1 (calculated using the equilibrium constants at pH=7.4 and cMn=cL=10^−5 M), it can be concluded that the studied Mn(II) complexes are formed in 100% at physiological pH, which is an essential aspect of the practical use.

[3] = literature value, 'under the same conditions'; cited from earlier work
[4] = cited from earlier work

Compound	logK1 (protonation constant) [1]	logK2 (protonation constant) [1]	ΣlogKi^H (total basicity) [1]	logKMnL (stability constant of Mn(II) complex) [2]	pMn [2]	r1 relaxivity [3] [mM⁻¹ s⁻¹]	logK3 (protonation constant) [1]	logK4 (protonation constant) [1]	Gd(III) ion released, calculated on the basis of experiments at 25° C. ([4]; 25° C.) [%]	Gd(III) ion released during in vivo dissociation ([4]; 37° C.) [%]
O=C(CN1CCNCCN(CC(=O)N2CCCCC2)Cc2cccc(n2)C1)N1CCCCC1 [tPC2AM^Pyp]	11.31(1)	3.94(3)	15.26	13.09(2)	7.09	–	–	–	–	–
CNC[C@H](O)[C@@H](O)[C@H](O)[C@H](O)CO.O=C([O-])CN1CCN(CC(=O)[O-])CCN(CC(=O)O)CCN(CC(=O)[O-])CC1.[Gd+3] [DOTAREM]	–	–	–	–	–	3.83	–	–	–	–
O=C(O)C1CCCN1C(=O)CN1CCNCCN(CC(=O)N2CCCC2C(=O)O)Cc2cccc(n2)C1 (stereo not shown) [tPC2AM^Pro]	9.80(2)	7.96(4)	23.67	13.77(3)	7.85	–	3.65(5)	2.26(4)	–	–
CNC[C@H](O)[C@@H](O)[C@H](O)[C@H](O)CO.CNC[C@H](O)[C@@H](O)[C@H](O)[C@H](O)CO.O=C([O-])CN(CCN(CC(=O)[O-])CC(=O)O)CCN(CC(=O)[O-])CC(=O)O.[Gd+3] [MAGNEVIST]	–	–	–	–	–	4.02	–	–	0.5	2.2
